In paper PMC6429183, “Identification of Compounds That Inhibit Estrogen-Related Receptor Alpha Signaling Using High-Throughput Screening Assays” (Molecules, 2019):
Where two headings read alike, the source gives them in different places.

Experiments:
[1] = tested on: ERR reporter HEK293 cells; test: CellTiter-Fluor cell viability assay multiplexed with ERR reporter assay; type: cell-based; settings: for ERR-HEK293 Follow-Up Viability EC50: follow-up screen; for ERR-HEK293 Primary Viability EC50: primary qHTS, viability counter screen
Experimental: (§1) ERR or PGC/ERR reporter HEK293 cells suspended in culture medium without puromycin were dispensed at 2500 cells/5 μL/well in tissue culture–treated 1536-well white assay plates (Greiner Bio-One North America, Monroe, NC, USA) using a Thermo Scientific Multidrop Combi (ThermoFisher Scientific, Inc.). […] After the cells were incubated at 37 °C with 5% CO2 for 6 h, 23 nL of compounds or control, XTC790, was transferred into the assay plates using a Wako Pintool station (Wako Automation, San Diego, CA, USA). The assay plates were incubated at 37 °C for 18 h, followed by the addition of 5 μL ONE-Glo luciferase reagent (Promega, Madison, WI, USA) using a Flying Reagent Dispenser (Aurora Discovery, Carlsbad, CA, USA). After 30 min of incubation at room temperature, the luminescence intensity of the assay plates was quantified using a ViewLux plate reader (PerkinElmer, Shelton, CT, USA). The assays were performed three times for each compound concentration. These ERR and PGC/ERR reporter assays were multiplexed with the CellTiter-Fluor Cell Viability Assay (Promega), a fluorescence-based cell viability assay, to assess compound cytotoxicity.
The qHTS data were analyzed as described previously. […] The DMSO-only compound plates at the beginning and end of the compound plate stack were used to correct the data set by applying an in-house pattern correction algorithm. The half maximum inhibition values (IC50) for each compound and maximum response (efficacy) values were obtained by fitting the concentration-response curves of each compound to a four-parameter Hill equation [91]. […] For each reading, the activity outcome of a test compound was first categorized by the average curve rank from the triplicate runs and the reproducibility calls. The final activity outcome of each compound was based on the ERR antagonist readout activity and cell viability counter screen.

cytochrome c = test: qRT-PCR mRNA expression of ERR downstream gene cytochrome c; type: cell-based; settings: ERR reporter cells, vs GAPDH, DMSO = 0%
Experimental: (§2) Total RNA was isolated from treated ERR reporter cells using an RNeasy Mini Kit (Qiagen, Germantown, MD, USA), homogenized using a QIAshredder (Qiagen), and reverse transcribed with a High-Capacity RNA-to-cDNA™ Kit (ThermoFisher Scientific, Inc.) following the manufacturers’ instructions. Expression of ERRα, COX8α, IDH3α, PPARα, COX4I1, and cytochrome c genes was normalized against GAPDH. All primers were purchased from ThermoFisher Scientific, Inc. Real-time PCR assays were performed in 384-well plates on a QuantStudio 5 (Applied Biosystems, Foster City, CA, USA) with TaqMan™ Gene Expression Master Mix (ThermoFisher Scientific, Inc.). Induction values were calculated using the equation: Fold = 2^ΔΔCt, where ΔCt represents the differences in cycle threshold numbers between each of the target genes and GAPDH, and ΔΔCt represents the relative change in these differences between control and treatment groups. Experimental data are presented as a mean of triplicate determinations ± SD. Statistical comparisons were made by t-test, while the statistical significance was set at p values of <0.05 (light blue), <0.01 (medium blue), and <0.001 (dark blue).

[2] = tested on: Nrf2/antioxidant response element (ARE); test: Nrf2/ARE-HepG2 β-lactamase reporter agonist assay; type: cell-based; settings: agonist mode, heatmap outcome
Experimental: After the assay plates were incubated at 37 °C for 5–6 h, 23 nL of compounds dissolved in DMSO or positive controls were transferred to the assay plates via a Wako Pintool station (Wako). Except for ARE and p53, all other assays received 1 µL/well agonist (10 nM R1881 for AR; 0.5 and 5 nM β-estradiol for ERα and ERβ respectively; 300 µM CDCA for FXR; 50 nM Rosiglitazone for PPARγ; and 5 nM R5020 for PR) or assay medium using a Flying Reagent Dispenser (FRD). The assay plates were incubated for 16 h (AR, Nrf2/ARE, ERβ, FXR, p53, and PR), 17 h (PPARγ), or 18 h (ERα) at 37 °C, and 1 µL/well LiveBLAzer™ FRET-B/G CCF4-AM substrate (ThermoFisher Scientific, Inc.) detection mix was added using an FRD and the plates were incubated at room temperature for 2 h. […] Data were expressed as the ratio of 460/530 nm emission values.

IDH3α = test: qRT-PCR mRNA expression of ERR downstream gene IDH3α; type: cell-based; settings: ERR reporter cells, vs GAPDH, DMSO = 0%
Experimental: as §2

[3] = biological target: T1, estrogen-related receptor alpha (ERRα) (Homo sapiens, UniProt P11474); test: ERR reporter (luciferase) antagonist qHTS assay, ERR-HEK293; settings: for EC50: mean ± SD, triplicate; for ERR-HEK293 Primary Efficacy: primary qHTS, DMSO = 0%
T1 sequence (P11474 1-423): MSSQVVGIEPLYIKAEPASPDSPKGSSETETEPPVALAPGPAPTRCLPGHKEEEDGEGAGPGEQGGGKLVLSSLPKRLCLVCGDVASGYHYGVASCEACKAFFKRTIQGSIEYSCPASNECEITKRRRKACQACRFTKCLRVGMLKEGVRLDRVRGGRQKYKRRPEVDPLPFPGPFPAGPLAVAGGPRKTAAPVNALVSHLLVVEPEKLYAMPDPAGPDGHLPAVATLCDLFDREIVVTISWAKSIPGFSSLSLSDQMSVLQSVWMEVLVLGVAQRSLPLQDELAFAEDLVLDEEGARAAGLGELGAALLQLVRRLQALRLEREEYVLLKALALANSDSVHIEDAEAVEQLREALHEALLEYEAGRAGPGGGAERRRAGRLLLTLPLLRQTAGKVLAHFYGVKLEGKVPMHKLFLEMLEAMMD
Experimental: (§3) The ERR reporter HEK293 cells were cultured in high glucose DMEM medium (ThermoFisher Scientific, Inc., Waltham, MA, USA) supplemented with 10% fetal bovine serum (FBS; ThermoFisher Scientific, Inc.), 4 mM of L-glutamine (ThermoFisher Scientific, Inc.), 1 mM of sodium pyruvate (ThermoFisher Scientific, Inc.), 100 U/mL of penicillin and 100 mg/mL of streptomycin (ThermoFisher Scientific, Inc.). PGC/ERR reporter HEK293 cells were cultured in the same medium as the ERR reporter HEK293 cells with an additional 1 μg/mL puromycin (ThermoFisher Scientific, Inc.) as the selection marker for PGC-1α expression.
(§4) The DMSO-only compound plates at the beginning and end of the compound plate stack were used to correct the data set by applying an in-house pattern correction algorithm [90]. The half maximum inhibition values (IC50) for each compound and maximum response (efficacy) values were obtained by fitting the concentration-response curves of each compound to a four-parameter Hill equation [91]. […] For each reading, the activity outcome of a test compound was first categorized by the average curve rank from the triplicate runs and the reproducibility calls. The final activity outcome of each compound was based on the ERR antagonist readout activity and cell viability counter screen.

[4] = biological target: T2, ERRα with PGC-1α (PGC/ERR pathway) (Homo sapiens, UniProt P11474); test: PGC/ERR reporter (luciferase) qHTS assay, PGC/ERR-HEK293; settings: for EC50: mean ± SD, triplicate
T2 sequence (P11474 1-423): T1 sequence (P11474 1-423)
Experimental: as §3, §4

COX4I1 = test: qRT-PCR mRNA expression of ERR downstream gene COX4I1; type: cell-based; settings: 5 µM; ERR reporter cells; vs GAPDH, DMSO = 0%
Experimental: as §2, with “Experimental data are presented as a mean of triplicate determinations ± SD. Statistical comparisons were made by t-test, while the statistical significance was set at p values of <0.05 (light blue), <0.01 (medium blue), and <0.001 (dark blue).” left out

[5] = tested on: PGC/ERR reporter HEK293 cells; test: CellTiter-Fluor cell viability assay multiplexed with PGC/ERR reporter assay; type: cell-based
Experimental: as §1
The qHTS data were analyzed as described previously. Each titration point was normalized relative to the positive control compound (XCT790 = −100%) and DMSO-only wells (0%) according to the following equation: % Activity = [(Vcompound − VDMSO)/(VDMSO − Vpos)] × 100, where Vcompound denotes the compound well values, Vpos denotes the median value of the positive control wells, and VDMSO denotes the median values of the DMSO-only wells. The DMSO-only compound plates at the beginning and end of the compound plate stack were used to correct the data set by applying an in-house pattern correction algorithm. The half maximum inhibition values (IC50) for each compound and maximum response (efficacy) values were obtained by fitting the concentration-response curves of each compound to a four-parameter Hill equation [91]. Compounds were designated as Class 1–4 according to the type of concentration–response curve observed. For each reading, the activity outcome of a test compound was first categorized by the average curve rank from the triplicate runs and the reproducibility calls. The final activity outcome of each compound was based on the ERR antagonist readout activity and cell viability counter screen.

[6] = biological target: T2, ERRα with PGC-1α (PGC/ERR pathway)
Experimental: as §3, §4

COX8α = test: qRT-PCR mRNA expression of ERR downstream gene COX8α; type: cell-based; settings: 2 µM; ERR reporter cells; vs GAPDH, DMSO = 0%
Experimental: as §2

[7] = biological target: T1, estrogen-related receptor alpha (ERRα)
Experimental: as §3, §4

[8] = ERR-HEK293 Follow-Up EC50, follow-up (confirmation) screen
[9] = ERR-HEK293 Primary EC50, primary qHTS, 18 h, 15 concentrations
[10] = PGC/ERR-HEK293 Follow-Up EC50, follow-up screen
[11] = PGC/ERR-HEK293 Primary EC50, primary qHTS, 18 h

C[C@@H]1CC[C@H]2[C@@H](C)C(=O)O[C@@H]3O[C@@]4(C)CC[C@@H]1[C@]32OO4 [Artemisinin]
ERR-HEK293 Follow-Up Viability EC50 [1]: Inactive
ERR-HEK293 Primary Viability EC50 [1]: Inactive
Percent inhibition of mRNA gene expression, Cytochrome C (cytochrome c; 7 µM): 36.2%
activity in the Nrf2-ARE assay [2]: active agonists
Percent inhibition of mRNA gene expression, IDH3α (IDH3α; 7 µM): 30.2%
EC50 [3, 8]: 2.44 ± 1.22 µM
EC50 [3, 9]: 1.01 ± 0.297 µM
ERR-HEK293 Follow-Up Efficacy ([3]; follow-up screen, relative to XCT790 = −100%): −83.7 ± 14.6%
ERR-HEK293 Primary Efficacy ([3]; relative to XCT790 = −100%): −71.6 ± 5.57%
ERR-HEK293 Primary Efficacy ([3]; relative to XCT790 = −100%, listed as artemisinin): −71.6%
EC50 [4, 10]: 14.5 ± 10.8 µM
EC50 [4, 11]: 1.78 ± 0.401 µM
PGC/ERR-HEK293 Follow-Up Efficacy ([4]; follow-up screen, negative = antagonism, positive = agonism): −72.8 ± 22.0%
activity in the ERR/PGC assay ([4]; in words): antagonism
PGC/ERR-HEK293 Primary Efficacy ([4]; primary qHTS, negative = antagonism, positive = agonism): −57.6 ± 2.03%

Cc1nc2ccccc2n1Cc1ccc(Cl)cc1 [Chlormidazole]
Percent inhibition of mRNA gene expression, Cytochrome C (cytochrome c; 5 µM): 35.8 ± 3.92%
Percent inhibition of mRNA gene expression, IDH3α (IDH3α; 5 µM): 23.8 ± 3.17%
Percent inhibition of mRNA gene expression, COX4I1 (COX4I1): 4.71 ± 5.09%

CO/N=C(/C(=O)OC)c1ccccc1COc1ccccc1C [Kresoxim-methyl]
PGC/ERR-HEK293 Follow-Up Viability EC50 ([5]; follow-up screen): Inactive
PGC/ERR-HEK293 Primary Viability EC50 ([5]; primary qHTS): Inactive
ERR-HEK293 Follow-Up Viability EC50 [1]: Inactive
ERR-HEK293 Primary Viability EC50 [1]: Inactive
Percent inhibition of mRNA gene expression, Cytochrome C (cytochrome c; 2 µM): 9.31 ± 0.48%
Percent inhibition of mRNA gene expression, IDH3α (IDH3α; 2 µM): 8.26 ± 19.3%
EC50 [3, 8]: 8.31 ± 3.29 µM
EC50 [3, 9]: 5.65 ± 6.96 µM
PGC/ERR-HEK293 Follow-Up Efficacy [6]: −61.1 ± 10.0%
PGC/ERR-HEK293 Primary Efficacy [6]: −56.7 ± 8.51%
EC50 [4, 10]: 17.7 ± 6.04 µM
EC50 [4, 11]: 7.66 ± 6.87 µM
Percent inhibition of mRNA gene expression, COX8α (COX8α): 9.70 ± 12.8%
ERR-HEK293 Follow-Up Efficacy [7]: −102 ± 1.40%
ERR-HEK293 Primary Efficacy [7]: −86.6 ± 21.1%
